This passage reports EC50 and IC50 results from paper PMC6167002 (Journal of Medicinal Chemistry, 2018).

One assay relates to T1, T. brucei.
T1 construct: s427
As to the kind of experiment: microbe, parasite or virus in culture. To be noted: Trypanosoma brucei, 73 h. The arrangement: species or system T. b. brucei s427 bloodstream form; bloodstream T. b. brucei viability, resazurin fluorescence. How it is done:
T.brucei cell viability assays were carried out as described previously.[6] In brief, bloodstream T. b. brucei s427 was cultured at 37 °C in modified HMI9 medium (56 μM 1-thioglycerol was substituted for 200 μM 2-mercaptoethanol) and quantified using a hemocytometer. Cell culture plates were stamped with 1 μL of an appropriate concentration of test compound in DMSO followed by the addition of 200 μL of trypanosome culture (10^4 cells ml^–1) to each well except for one column that received media only. Culture plates of T. brucei cells were incubated at 37 °C in an atmosphere of 5% CO2 for 69 h before the addition of 20 μL of resazurin (final concentration, 50 μM). After a further 4 h incubation, fluorescence was measured (excitation 528 nm; emission 590 nm) using a BioTek flx800 plate reader.

Assay [1] addresses T2, TbNMT (Trypanosoma brucei N-myristoyltransferase) (Trypanosoma brucei, UniProt Q388H8).
T2 construct: gene Tb10.61.2550
As to the kind of experiment: scintillation proximity assay with [3H]myristoyl-CoA and biotinylated CAP5.[…] peptide. The format is biochemical. Background: Scintillation proximity formats need no separation of bound from free tracer.

pEC50, pIC50: −log10 of the molar value.

T2 sequence (Q388H8 entry or part of it): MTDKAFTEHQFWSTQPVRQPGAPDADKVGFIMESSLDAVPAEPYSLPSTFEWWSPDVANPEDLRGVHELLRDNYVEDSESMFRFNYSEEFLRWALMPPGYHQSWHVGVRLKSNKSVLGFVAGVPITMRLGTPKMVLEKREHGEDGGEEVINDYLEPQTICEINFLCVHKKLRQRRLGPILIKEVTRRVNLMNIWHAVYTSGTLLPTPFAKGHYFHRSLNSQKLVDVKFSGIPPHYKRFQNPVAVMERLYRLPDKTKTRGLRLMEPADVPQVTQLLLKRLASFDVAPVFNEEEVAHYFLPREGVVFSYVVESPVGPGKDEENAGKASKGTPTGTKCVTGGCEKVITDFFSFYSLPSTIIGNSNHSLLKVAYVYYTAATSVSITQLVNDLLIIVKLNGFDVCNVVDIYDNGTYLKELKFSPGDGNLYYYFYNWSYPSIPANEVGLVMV

As a reminder, the pEC50 is the negative decadic logarithm of the EC50, by convention in mol/L. A higher pEC50 goes with a small EC50. As for `CC(C)Cc1ccc2ncccc2c1NS(=O)(=O)c1ccc(CCCC2CCNCC2)cc1` [S1, N-(6-isobutylquinolin-5-yl)-4-(3-(piperidin-4-yl)propyl)benzenesulfonamide], the pEC50 in the assay with T. brucei is 7.60. In the assay with T. brucei, `CC(C)Cc1ccc2ncccc2c1NS(=O)(=O)c1ccc(CCCN2CCN3CCC[C@H]3C2)cc1` [S2, (S)-4-(3-(hexahydropyrrolo[1,2-a]pyrazin-2(1H)-yl)propyl)-N-(6-isobutylquinolin-5-yl)benzenesulfonamide] gave a negative-log EC50 (pEC50) of 6.82.

In the assay with T. brucei, `CC(C)Cc1ccc2ncccc2c1NS(=O)(=O)c1ccc(CCCOC[C@@H]2CCCCN2)cc1` [S3, (S)-N-(6-isobutylquinolin-5-yl)-4-(3-(piperidin-2-ylmethoxy)propyl)benzenesulfonamide] had a pEC50 of 6.07. Compound `CC(C)Cc1ccc2ncccc2c1NS(=O)(=O)c1ccc(CCCOC[C@@H]2CCCN(C)C2)cc1` [S4, (R)-N-(6-isobutylquinolin-5-yl)-4-(3-((1-methylpiperidin-3-yl)methoxy)propyl)benzenesulfonamide] gave a pEC50 in the assay with T. brucei of 8.00. This pEC50 is 1.93 log units higher than that of the compound before. Still for that read-out and setting: for `CC(C)Cc1ccc2ncccc2c1NS(=O)(=O)c1ccc(CCCOC[C@H]2COCCN2)cc1` [S5, (S)-N-(6-isobutylquinolin-5-yl)-4-(3-(morpholin-3-ylmethoxy)propyl)benzenesulfonamide] the value was 6.15; for `CC(C)Cc1ccc2ncccc2c1NS(=O)(=O)c1ccc(CCCOC[C@H]2COCCN2C)cc1` [S6, (S)-N-(6-isobutylquinolin-5-yl)-4-(3-((4-methylmorpholin-3-yl)methoxy)propyl)benzenesulfonamide], 6.60. `CC(C)Cc1ccc2ncccc2c1NS(=O)(=O)c1ccc(CCCC2CCN(C)CC2)cc1` [compound 31, N-(6-isobutylquinolin-5-yl)-4-(3-(1-methylpiperidin-4-yl)propyl)benzenesulfonamide] gave a pEC50 in the assay with T. brucei of 8.05. In general, pIC50 refers to −log10 of the IC50, conventionally taken in molar units. The low end stands for a high IC50, the high end for a low IC50. Take `CC(C)Cc1ccc2ncccc2c1NS(=O)(=O)c1ccc(CCCCC2CCN(C)CC2)cc1` [compound 32, N-(6-Isobutylquinolin-5-yl)-4-(4-(1-methylpiperidin-4-yl)butyl)benzenesulfonamide]: in assay [1], the pIC50 was above 8.30. The compound also had a pEC50 in the assay on T. brucei of 7.72. In the assay with T. brucei, `CC(C)Cc1ccc2ncccc2c1NS(=O)(=O)c1ccc(CCCCC2CCNCC2)cc1` [compound 33, N-(6-isobutylquinolin-5-yl)-4-(4-(piperidin-4-yl)butyl)benzenesulfonamide] gave a pEC50 of 7.68. On to `CC(C)Cc1ccc2ncccc2c1NS(=O)(=O)c1ccc(CCCN2CCN3CCC[C@@H]3C2)cc1` [compound 34, (R)-4-(3-(hexahydropyrrolo[1,2-a]pyrazin-2(1H)-yl)propyl)-N-(6-isobutylquinolin-5-yl)benzenesulfonamide], for which the pEC50 in the assay with T. brucei is 7.40. Against the preceding compound, the pEC50 is 0.28 log units lower. As for `CC(C)Cc1ccc2ncccc2c1NS(=O)(=O)c1ccc(CCCCN2CCN3CCC[C@@H]3C2)cc1` [compound 35, (R)-4-(4-(hexahydropyrrolo[1,2-a]pyrazin-2(1H)-yl)butyl)-N-(6-isobutylquinolin-5-yl)benzenesulfonamide], the pEC50 in the assay on T. brucei is 6.60. `CC(C)Cc1ccc2ncccc2c1NS(=O)(=O)c1ccc(CCCN2CCCN(C)CC2)cc1` [compound 36, N-(6-isobutylquinolin-5-yl)-4-(3-(4-methyl-1,4-diazepan-1-yl)propyl)benzenesulfonamide]: the pEC50 in the assay on T. brucei is 7.74.

In the assay with T. brucei, `CC(C)Cc1ccc2ncccc2c1NS(=O)(=O)c1ccc(CCCCN2CCCN(C)CC2)cc1` [compound 37, N-(6-isobutylquinolin-5-yl)-4-(4-(4-methyl-1,4-diazepan-1-yl)butyl)benzenesulfonamide] gave a pEC50 of 7.23.

In the assay on T. brucei, `CC(C)Cc1ccc2ncccc2c1NS(=O)(=O)c1ccc(CCCN2CCN(C)CC2)cc1` [compound 38, N-(6-isobutylquinolin-5-yl)-4-(3-(4-methylpiperazin-1-yl)propyl)benzenesulfonamide] gave a pEC50 of 7.08. This pEC50 and that of the compound before are within 0.2 log units of each other. Still for that read-out and setting: for `CC(C)Cc1ccc2ncccc2c1NS(=O)(=O)c1ccc(CCCCN2CCNCC2)cc1` [compound 39, N-(6-isobutylquinolin-5-yl)-4-(4-(piperazin-1-yl)butyl)benzenesulfonamide] the value was 6.74. Same read-out and setting: for `CC(C)Cc1ccc2ncccc2c1NS(=O)(=O)c1ccc(CCCCN2C[C@@H](C)N[C@@H](C)C2)cc1` [compound 40, 4-(4-((3S,5R)-3,5-dimethylpiperazin-1-yl)butyl)-N-(6-isobutylquinolin-5-yl)benzenesulfonamide] the value was 6.46. Take `CC(C)Cc1ccc2ncccc2c1NS(=O)(=O)c1ccc(CCCO[C@@H]2C[C@H]3CC[C@@H](C2)N3C)cc1` [compound 41, 41]: in the assay with T. brucei, the pEC50 was 7.04. This pEC50 is 0.58 log units higher than that of the compound before. The same measure, in the same setting: for `CC(C)Cc1ccc2ncccc2c1NS(=O)(=O)c1ccc(CCCO[C@H]2C[C@H]3CC[C@@H](C2)N3C)cc1` [compound 42, 42] the value was 8.05; for `CC(C)Cc1ccc2ncccc2c1NS(=O)(=O)c1ccc(CCCO[C@@H]2CCCN(C)C2)cc1` [compound 43, (R)-N-(6-isobutylquinolin-5-yl)-4-(3-((1-methylpiperidin-3-yl)oxy)propyl)benzenesulfonamide], 7.41. As for `CC(C)Cc1ccc2ncccc2c1NS(=O)(=O)c1ccc(CCCOC[C@@H]2CNCCO2)cc1` [compound 44, (S)-N-(6-isobutylquinolin-5-yl)-4-(3-(morpholin-2-ylmethoxy)propyl)benzenesulfonamide], the pEC50 in the assay with T. brucei is 7.41. In turn, `CC(C)Cc1ccc2nn(C)cc2c1NS(=O)(=O)c1ccc(CCCCC2CCN(C)CC2)cc1` [compound 54, N-(5-Isobutyl-2-methyl-2H-indazol-4-yl)-4-(4-(1-methylpiperidin-4-yl)butyl)benzenesulfonamide] showed a pIC50 in assay [1] above 8.30. `CC(C)Cc1ccc2nn(C)cc2c1NS(=O)(=O)c1ccc(CCCO[C@@H]2C[C@H]3CC[C@@H](C2)N3C)cc1` [compound 60] had a pIC50 in assay [1] of 8.30.
